Assay [1] has as its target T1, AdeJ multidrug efflux pump (Acinetobacter baumannii, UniProt Q2FD94).
T1 construct: full-length, 1,058 residues (1,046 built per protomer); N-terminal 6xHis tag (pET15b); expressed in E. coli BL21(DE3) delta-acrB; DDM-purified, reconstituted in MSP 1E3D1 lipidic nanodiscs; homotrimer
Description: single-particle cryo-EM structure ([…] A). The settings on record: 10 uM AdeJ-nanodisc with 20 uM eravacycline (dihydrochloride), 1 h; distal drug-binding site of the binding-state protomer, one molecule per trimer; no Mg2+ seen at the site.

The target in assay [2] is Acinetobacter drug efflux (Ade)J multidrug efflux pump of A. baumannii Ab0057 (Acinetobacter baumannii Ab0057) (UniProt Q2FD94). Nature of the assay: cryo-EM structure; single-particle cryo-EM of 10 μM AdeJ in lipidic nanodiscs, incubated with 20 μM eravacycline for 1 h; two classes in one sample (apo-AdeJ trimer and AdeJ-Era trimer); 20 mM Tris-HCl pH 7.5, 100 mM NaCl.

With `CN(C)[C@@H]1C(=O)C(C(N)=O)=C(O)[C@@]2(O)C(=O)C3=C(O)c4c(O)c(NC(=O)CN5CCCC5)cc(F)c4C[C@H]3C[C@@H]12` [eravacycline], the “single-particle cryo-EM structure (2.86 A)” value in assay [1] is given as “large density corresponds to the bound Era drug located at the distal multidrug-binding site”.

“Acinetobacter drug efflux (Ade)J multidrug efflux pump of A. baumannii Ab0057 (from UniProt Q2FD94 1-1058) (natural protein)” returned a stoichiometry N in assay [2] of 3.

As usually defined, the stoichiometry N is a count of units in the complex or per binding partner.

Source of the values: paper PMC8263017, “Cryo-EM Determination of Eravacycline-Bound Structures of the Ribosome and the Multidrug Efflux Pump AdeJ of Acinetobacter baumannii” (mBio, 2021).
